The values that follow come from ChEMBL document CHEMBL1926684, “Constituents of Trigonostemon heterophyllus” (J Nat Prod, 2011).

A word on the IC50: it is the concentration that gives 50% inhibition. The low end stands for greater potency, the high end for weaker potency.

In experiment [1] the test system is HL-60. The experiment in a line: Cytotoxicity against human HL60 cells by MTT assay. The class given is functional, cell-based. A general note: Formazan colour is commonly taken as a measure of viable cells.
The subject of experiment [2] is A549. The experiment in a line: Cytotoxicity against human A549 cells by SRB assay. Type of experiment: functional, cell-based. Background: In SRB staining, fixed cells bind dye roughly in proportion to their protein.

Regarding `C=C(C)[C@@]12OC3(C)O[C@@H]1[C@@H]1[C@H](O)[C@@](C)(O)[C@@H](O)[C@@]4(O)[C@@H](C[C@H](C)[C@@H]4OC(C)=O)[C@@]1(O3)[C@H](C)[C@@H]2OC(=O)CCc1ccccc1` (relative stereo), the IC50 in experiment [1] and in experiment [2] was above 10 µM each time.

With `C=C(C)[C@@]12OC3(c4ccccc4)O[C@@H]1[C@@H]1[C@H](OC(C)=O)[C@@](C)(O)[C@@H](OC(=O)c4ccccc4)[C@@]4(O)[C@@H](C[C@H](C)[C@@H]4OC(C)=O)[C@@]1(O3)[C@H](C)[C@@H]2OC(C)=O` (relative stereo), the IC50 in experiment [1] and in experiment [2] was above 10 µM each time.

For `C=C(C)[C@@]1(OC(C)=O)[C@H](OC(C)=O)[C@@H]2[C@H](OC(C)=O)[C@@]3(C)O[C@@]4([C@@H]3OC(C)=O)[C@@H](OC(=O)c3ccccc3)[C@](C)(OC(C)=O)C[C@H]4[C@@]2(O)[C@H](C)[C@@H]1OC(=O)c1ccccc1` (relative stereo), the IC50 in experiment [1] and in experiment [2] was above 10 µM each time.

Regarding `CC(C)=CC(=O)C(O)/C(C)=C/CC[C@](C)(O)C1CCC(C)=CC1=O` (some centres not stated), the IC50 in experiment [1] and in experiment [2] was above 10 µM in each case.

As for `C=C(C)[C@@]12OC3(c4ccccc4)O[C@@H]1[C@@H]1[C@H]4O[C@@]4(C)[C@@H](O)[C@]4(O)C(=O)[C@@H](C)C[C@H]4[C@@]1(O3)[C@H](C)[C@@H]2OC(=O)c1ccccc1` (relative stereo), the results for the IC50 in experiment [1] and in experiment [2] were 1.8 µM and 10 µM, respectively.

In the case of `C=C(C)[C@@]1(OC(C)=O)[C@H](OC(C)=O)[C@@H]2[C@H](OC(C)=O)[C@@]3(C)O[C@@]4([C@@H]3OC(C)=O)[C@@H](OC(=O)c3ccccc3)[C@@H](C)C[C@H]4[C@@]2(O)[C@H](C)[C@@H]1OC(=O)c1ccccc1` [TRIGOHETERIN B], the IC50 in experiment [1] and in experiment [2] was above 10 µM in each case.
